Data published in the kinase profiling compilation of Christmann-Franck et al. (2016).

Legend:
Experiment in all cases: radiometric filter-binding kinase assay, Kinase HotSpot
Conditions in all cases: compound 0.5 µM; ATP 10 µM
[1] = target: CDK6 CCND3 (human) (UniProt P30281+Q00534)
[2] = target: ROCK1 (human) (UniProt Q13464)
[3] = target: CAMK2D (human) (UniProt Q13557)
[4] = target: PRKCI (human) (UniProt P41743)
[5] = target: GRK7 (human) (UniProt Q8WTQ7)
[6] = target: MYLK2 (human) (UniProt Q9H1R3)
[7] = target: TSSK2 (human) (UniProt Q96PF2)
[8] = target: CAMK1G (human) (UniProt Q96NX5)
[9] = target: RPS6KA5 KD2 (human) (UniProt O75582)
[10] = target: GRK4 (human) (UniProt P32298)
[11] = target: DAPK2 (human) (UniProt Q9UIK4)
[12] = target: CAMK2B (human) (UniProt Q13554)
[13] = target: CHEK1 (human) (UniProt O14757)
[14] = target: CLK1 (human) (UniProt P49759)
[15] = target: CDK3 CCNE1 (human) (UniProt Q00526+P24864)
[16] = target: TYK2 JH1 catalytic (human) (UniProt P29597)
[17] = target: JAK3 JH1 JH2 (human) (UniProt P52333)
[18] = target: JAK1 JH1 catalytic (human) (UniProt P23458)
[19] = target: HIPK4 (human) (UniProt Q8NE63)
[20] = target: PRKCH (human) (UniProt P24723)
[21] = target: PBK (human) (UniProt Q96KB5)
[22] = target: TSSK1B (human) (UniProt Q9BXA7)
[23] = target: VRK1 (human) (UniProt Q99986)
[24] = target: PRKD1 (human) (UniProt Q15139)
[25] = target: MAPK1 (human) (UniProt P28482)
[26] = target: RIPK2 (human) (UniProt O43353)
[27] = target: IRAK1 (human) (UniProt P51617)
[28] = target: TAOK3 (human) (UniProt Q9H2K8)
[29] = target: YES1 (human) (UniProt P07947)
[30] = target: PIM2 (human) (UniProt Q9P1W9)
[31] = target: AKT3 (human) (UniProt Q9Y243)
[32] = target: DAPK3 (human) (UniProt O43293)
[33] = target: STK11 (human) (UniProt Q15831)
[34] = target: EPHB4 (human) (UniProt P54760)
[35] = target: STK33 (human) (UniProt Q9BYT3)
[36] = target: TGFBR1 (human) (UniProt P36897)
[37] = target: STK39 (human) (UniProt Q9UEW8)
[38] = target: CAMK2A (human) (UniProt Q9UQM7)
[39] = target: CDK4 CCND1 (human) (UniProt P24385+P11802)
[40] = target: CDK2 CCNA2 (human) (UniProt P24941+P20248)
[41] = target: TYRO3 (human) (UniProt Q06418)
Sequence of TYRO3 (human) (Q06418 whole entry, looked up): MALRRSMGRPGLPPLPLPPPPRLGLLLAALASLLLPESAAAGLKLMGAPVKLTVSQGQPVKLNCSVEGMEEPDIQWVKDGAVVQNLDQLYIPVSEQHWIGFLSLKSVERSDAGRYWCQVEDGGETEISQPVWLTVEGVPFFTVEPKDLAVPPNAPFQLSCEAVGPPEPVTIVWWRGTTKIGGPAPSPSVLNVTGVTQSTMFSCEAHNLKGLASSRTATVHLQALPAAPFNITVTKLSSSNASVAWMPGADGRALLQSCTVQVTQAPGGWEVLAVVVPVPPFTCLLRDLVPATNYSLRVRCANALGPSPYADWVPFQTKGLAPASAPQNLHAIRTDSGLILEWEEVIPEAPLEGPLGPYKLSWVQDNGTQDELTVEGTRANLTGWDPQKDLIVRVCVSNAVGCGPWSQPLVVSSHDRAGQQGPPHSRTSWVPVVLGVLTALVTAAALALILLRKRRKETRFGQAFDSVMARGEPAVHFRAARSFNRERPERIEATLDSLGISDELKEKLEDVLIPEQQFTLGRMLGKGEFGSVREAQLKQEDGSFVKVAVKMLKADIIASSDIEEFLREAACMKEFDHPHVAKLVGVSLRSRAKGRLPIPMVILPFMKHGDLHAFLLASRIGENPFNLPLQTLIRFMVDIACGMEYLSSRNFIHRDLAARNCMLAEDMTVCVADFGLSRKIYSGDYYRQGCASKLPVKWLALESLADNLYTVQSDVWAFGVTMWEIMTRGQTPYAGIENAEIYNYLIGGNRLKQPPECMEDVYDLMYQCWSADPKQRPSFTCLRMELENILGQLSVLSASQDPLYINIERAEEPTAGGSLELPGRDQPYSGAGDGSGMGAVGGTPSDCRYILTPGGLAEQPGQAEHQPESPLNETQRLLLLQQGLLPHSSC

Sequence of YES1 (human) (P07947 whole entry, looked up): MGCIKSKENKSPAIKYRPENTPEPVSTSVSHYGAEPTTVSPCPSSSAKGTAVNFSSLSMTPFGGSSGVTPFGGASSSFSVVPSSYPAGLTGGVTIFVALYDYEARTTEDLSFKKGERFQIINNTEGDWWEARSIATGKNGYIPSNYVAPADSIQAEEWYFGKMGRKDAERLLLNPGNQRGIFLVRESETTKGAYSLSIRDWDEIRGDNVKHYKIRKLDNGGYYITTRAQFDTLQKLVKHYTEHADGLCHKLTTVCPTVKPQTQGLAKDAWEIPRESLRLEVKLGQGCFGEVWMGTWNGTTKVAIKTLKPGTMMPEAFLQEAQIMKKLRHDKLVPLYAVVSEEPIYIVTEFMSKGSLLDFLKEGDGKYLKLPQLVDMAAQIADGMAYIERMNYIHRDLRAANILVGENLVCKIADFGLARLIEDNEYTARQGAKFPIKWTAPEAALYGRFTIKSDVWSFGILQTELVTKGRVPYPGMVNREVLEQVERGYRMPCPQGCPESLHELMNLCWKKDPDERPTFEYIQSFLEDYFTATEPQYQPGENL
Sequence of RPS6KA5 KD2 (human) (O75582 whole entry, looked up): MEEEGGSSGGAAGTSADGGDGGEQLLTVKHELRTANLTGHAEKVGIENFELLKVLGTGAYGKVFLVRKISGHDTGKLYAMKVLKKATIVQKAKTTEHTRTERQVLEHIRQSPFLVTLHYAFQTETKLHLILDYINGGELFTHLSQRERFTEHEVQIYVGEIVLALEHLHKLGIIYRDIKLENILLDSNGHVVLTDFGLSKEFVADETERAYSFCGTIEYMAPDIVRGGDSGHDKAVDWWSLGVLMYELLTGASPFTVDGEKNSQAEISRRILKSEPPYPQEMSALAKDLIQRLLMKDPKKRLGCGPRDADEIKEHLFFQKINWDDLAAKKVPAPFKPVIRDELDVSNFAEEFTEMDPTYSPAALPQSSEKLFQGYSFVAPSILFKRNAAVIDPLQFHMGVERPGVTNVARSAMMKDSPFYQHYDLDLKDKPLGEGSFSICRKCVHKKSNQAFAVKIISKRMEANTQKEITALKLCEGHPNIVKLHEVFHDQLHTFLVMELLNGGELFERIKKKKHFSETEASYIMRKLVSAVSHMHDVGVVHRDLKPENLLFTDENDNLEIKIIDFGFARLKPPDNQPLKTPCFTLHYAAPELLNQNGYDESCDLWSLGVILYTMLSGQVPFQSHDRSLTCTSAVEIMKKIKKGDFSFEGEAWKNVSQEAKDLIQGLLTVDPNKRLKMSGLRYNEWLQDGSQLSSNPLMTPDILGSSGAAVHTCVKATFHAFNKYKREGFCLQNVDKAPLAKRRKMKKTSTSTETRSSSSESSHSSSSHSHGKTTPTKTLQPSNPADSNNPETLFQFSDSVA
Sequence of STK33 (human) (Q9BYT3 whole entry, looked up): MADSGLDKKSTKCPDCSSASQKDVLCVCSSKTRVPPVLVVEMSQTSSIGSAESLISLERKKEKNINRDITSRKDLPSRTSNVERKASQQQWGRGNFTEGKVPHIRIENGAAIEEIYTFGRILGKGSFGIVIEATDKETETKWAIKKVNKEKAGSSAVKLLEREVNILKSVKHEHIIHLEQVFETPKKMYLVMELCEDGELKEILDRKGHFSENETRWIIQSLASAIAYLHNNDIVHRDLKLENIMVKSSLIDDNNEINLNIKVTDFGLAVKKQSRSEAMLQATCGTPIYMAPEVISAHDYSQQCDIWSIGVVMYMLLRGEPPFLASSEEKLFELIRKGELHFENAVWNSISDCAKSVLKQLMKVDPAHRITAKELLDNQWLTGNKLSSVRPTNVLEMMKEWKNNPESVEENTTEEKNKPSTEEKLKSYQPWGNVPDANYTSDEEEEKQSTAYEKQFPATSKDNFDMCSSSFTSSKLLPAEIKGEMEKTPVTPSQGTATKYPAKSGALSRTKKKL
Sequence of CDK3 CCNE1 (human) (P24864 whole entry, looked up): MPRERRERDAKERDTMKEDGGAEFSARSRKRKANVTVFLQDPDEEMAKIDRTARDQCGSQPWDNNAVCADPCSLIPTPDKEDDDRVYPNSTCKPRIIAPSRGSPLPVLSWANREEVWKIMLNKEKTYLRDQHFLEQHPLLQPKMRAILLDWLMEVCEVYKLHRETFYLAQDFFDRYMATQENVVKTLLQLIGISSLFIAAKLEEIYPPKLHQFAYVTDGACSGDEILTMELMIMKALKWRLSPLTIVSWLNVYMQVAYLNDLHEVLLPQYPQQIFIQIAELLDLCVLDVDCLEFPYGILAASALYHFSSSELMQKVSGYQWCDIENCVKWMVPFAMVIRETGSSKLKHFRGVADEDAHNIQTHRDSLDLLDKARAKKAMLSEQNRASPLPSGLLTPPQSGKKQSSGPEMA
Sequence of CDK3 CCNE1 (human) (Q00526 whole entry, looked up): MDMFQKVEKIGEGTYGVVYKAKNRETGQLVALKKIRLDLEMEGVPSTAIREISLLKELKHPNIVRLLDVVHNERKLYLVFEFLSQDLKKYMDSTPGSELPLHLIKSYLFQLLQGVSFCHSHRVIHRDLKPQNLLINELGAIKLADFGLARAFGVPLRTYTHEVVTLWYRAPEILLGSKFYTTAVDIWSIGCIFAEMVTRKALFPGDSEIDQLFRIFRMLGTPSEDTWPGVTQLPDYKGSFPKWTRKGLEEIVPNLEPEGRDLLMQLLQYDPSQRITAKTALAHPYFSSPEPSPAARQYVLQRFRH
Sequence of STK11 (human) (Q15831 whole entry, looked up): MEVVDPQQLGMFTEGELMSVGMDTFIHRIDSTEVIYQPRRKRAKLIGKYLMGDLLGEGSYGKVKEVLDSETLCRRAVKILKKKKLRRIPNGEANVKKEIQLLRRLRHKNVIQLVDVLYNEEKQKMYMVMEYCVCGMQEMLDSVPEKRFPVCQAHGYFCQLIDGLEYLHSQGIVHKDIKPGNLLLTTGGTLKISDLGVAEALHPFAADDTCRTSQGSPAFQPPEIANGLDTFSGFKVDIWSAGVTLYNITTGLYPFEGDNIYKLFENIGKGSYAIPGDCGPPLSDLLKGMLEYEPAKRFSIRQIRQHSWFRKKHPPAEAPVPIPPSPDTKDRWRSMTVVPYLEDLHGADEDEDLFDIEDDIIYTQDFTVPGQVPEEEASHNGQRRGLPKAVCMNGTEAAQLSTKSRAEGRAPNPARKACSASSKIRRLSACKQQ
Sequence of PRKD1 (human) (Q15139 whole entry, looked up): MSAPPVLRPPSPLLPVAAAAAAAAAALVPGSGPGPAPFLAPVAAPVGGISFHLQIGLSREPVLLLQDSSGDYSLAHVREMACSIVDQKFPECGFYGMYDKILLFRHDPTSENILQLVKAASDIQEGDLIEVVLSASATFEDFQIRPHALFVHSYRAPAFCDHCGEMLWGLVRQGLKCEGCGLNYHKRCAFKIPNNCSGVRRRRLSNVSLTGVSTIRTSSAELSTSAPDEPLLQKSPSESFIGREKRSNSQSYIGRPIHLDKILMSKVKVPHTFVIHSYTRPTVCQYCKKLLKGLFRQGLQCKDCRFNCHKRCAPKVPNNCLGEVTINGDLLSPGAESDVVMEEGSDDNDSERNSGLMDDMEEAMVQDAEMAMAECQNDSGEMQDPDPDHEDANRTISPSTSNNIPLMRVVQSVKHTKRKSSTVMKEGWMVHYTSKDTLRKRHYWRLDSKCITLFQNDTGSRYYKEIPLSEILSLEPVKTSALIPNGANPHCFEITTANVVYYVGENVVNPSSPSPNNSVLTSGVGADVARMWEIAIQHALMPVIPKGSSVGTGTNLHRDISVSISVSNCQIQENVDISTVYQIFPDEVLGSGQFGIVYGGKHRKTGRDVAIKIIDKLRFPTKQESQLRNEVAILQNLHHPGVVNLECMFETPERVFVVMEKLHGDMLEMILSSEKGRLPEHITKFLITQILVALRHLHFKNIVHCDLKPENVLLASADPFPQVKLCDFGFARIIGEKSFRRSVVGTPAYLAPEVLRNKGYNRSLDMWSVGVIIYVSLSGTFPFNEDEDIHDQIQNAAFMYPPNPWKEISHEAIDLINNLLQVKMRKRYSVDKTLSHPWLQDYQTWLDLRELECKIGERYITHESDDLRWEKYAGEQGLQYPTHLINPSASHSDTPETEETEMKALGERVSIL

## O=c1c2ccccc2[nH]c(=S)n1CCN1CCC(=C(c2ccc(F)cc2)c2ccc(F)cc2)CC1
[1]
  residual activity: 98.2%
[2]
  residual activity: 97.2%
[3]
  residual activity: 97.9%
[4]
  residual activity: 96.3%
[5]
  residual activity: 111%
[6]
  residual activity: 99.9%
[7]
  residual activity: 101%
[8]
  residual activity: 104%
[9]
  residual activity: 105%
[10]
  residual activity: 107%
[11]
  residual activity: 104%
[12]
  residual activity: 102%
[13]
  residual activity: 108%
[14]
  residual activity: 113%
[15]
  residual activity: 100%
[16]
  residual activity: 107%
[17]
  residual activity: 104%
[18]
  residual activity: 105%
[19]
  residual activity: 98.4%
[20]
  residual activity: 102%
[21]
  residual activity: 107%
[22]
  residual activity: 106%
[23]
  residual activity: 95.9%
[24]
  residual activity: 101%
[25]
  residual activity: 102%
[26]
  residual activity: 93.1%
[27]
  residual activity: 106%
[28]
  residual activity: 92.4%
[29]
  residual activity: 99.2%
[30]
  residual activity: 129%
[31]
  residual activity: 99.4%
[32]
  residual activity: 102%
[33]
  residual activity: 107%
[34]
  residual activity: 97.1%
[35]
  residual activity: 106%
[36]
  residual activity: 96.2%
[37]
  residual activity: 96.8%
[38]
  residual activity: 105%
[39]
  residual activity: 99.6%
[40]
  residual activity: 99.9%
[41]
  residual activity: 91.1%

## O=C1NC(=O)c2cc(Nc3ccc(F)cc3)c(Nc3ccc(F)cc3)cc21
[1]
  residual activity: 89.9%
[2]
  residual activity: 96.7%
[3]
  residual activity: 97.9%
[4]
  residual activity: 89%
[5]
  residual activity: 106%
[6]
  residual activity: 98.7%
[7]
  residual activity: 97.2%
[8]
  residual activity: 106%
[9]
  residual activity: 93.6%
[10]
  residual activity: 103%
[11]
  residual activity: 96.7%
[12]
  residual activity: 98.7%
[13]
  residual activity: 104%
[14]
  residual activity: 102%
[15]
  residual activity: 98.9%
[16]
  residual activity: 80.6%
[17]
  residual activity: 93.9%
[18]
  residual activity: 91.5%
[19]
  residual activity: 82.5%
[20]
  residual activity: 83.3%
[21]
  residual activity: 88.4%
[22]
  residual activity: 90.2%
[23]
  residual activity: 93%
[24]
  residual activity: 92.2%
[25]
  residual activity: 121%
[26]
  residual activity: 95%
[27]
  residual activity: 88.5%
[28]
  residual activity: 89.9%
[29]
  residual activity: 86.6%
[30]
  residual activity: 98.6%
[31]
  residual activity: 100%
[32]
  residual activity: 101%
[33]
  residual activity: 98.2%
[34]
  residual activity: 108%
[35]
  residual activity: 99.3%
[36]
  residual activity: 98.1%
[37]
  residual activity: 89.2%
[38]
  residual activity: 103%
[39]
  residual activity: 101%
[40]
  residual activity: 95.3%
[41]
  residual activity: 94.8%

## COc1cc2c(cc1OC)-c1[nH]nc(Nc3cccc(F)c3)c1C2
[1]
  residual activity: 99.5%
[2]
  residual activity: 87.5%
[3]
  residual activity: 103%
[4]
  residual activity: 95.5%
[5]
  residual activity: 101%
[6]
  residual activity: 86.4%
[7]
  residual activity: 75.1%
[8]
  residual activity: 101%
[9]
  residual activity: 96%
[10]
  residual activity: 97.1%
[11]
  residual activity: 86.7%
[12]
  residual activity: 101%
[13]
  residual activity: 92.4%
[14]
  residual activity: 102%
[15]
  residual activity: 95.4%
[16]
  residual activity: 81.3%
[17]
  residual activity: 98.6%
[18]
  residual activity: 97.6%
[19]
  residual activity: 90%
[20]
  residual activity: 92.1%
[21]
  residual activity: 86.8%
[22]
  residual activity: 71.7%
[23]
  residual activity: 89.9%
[24]
  residual activity: 93.6%
[25]
  residual activity: 85.1%
[26]
  residual activity: 76.3%
[27]
  residual activity: 97.8%
[28]
  residual activity: 91.5%
[29]
  residual activity: 61.3%
[30]
  residual activity: 119%
[31]
  residual activity: 96.1%
[32]
  residual activity: 100%
[33]
  residual activity: 104%
[34]
  residual activity: 95.3%
[35]
  residual activity: 99.5%
[36]
  residual activity: 101%
[37]
  residual activity: 105%
[38]
  residual activity: 95.6%
[39]
  residual activity: 93.9%
[40]
  residual activity: 87.5%
[41]
  residual activity: 97.2%
